Assay results reported in US11160865B2, “Liquid pharmaceutical composition for the delivery of active ingredients” (NOVALIQ GMBH, priority 2010, dated 2021).
Several values for one entry are separate records, joined by “and”; a condition that tells them apart may be missing. Equal values may be shown once. Entries after “also recorded” stand apart in the source; their conditions may differ. Read-outs that look alike come from different tables or passages of the source.

How the values were obtained:
[1] = test system: rabbit eyes (cornea); test: Ex-vivo eye irritation test (EVEIT), healing of corneal abrasion lesions; details: for Final size of corneal lesions: Example 2, after 3 days of hourly dosing 12 h/day, runs are replicates; for starting area of corneal lesions: Example 3; for outcome of corneal lesions: Example 3, after 2 or 3 days of exposure
Procedure: (§1) The physiological tolerability of F4H5 and of a mixture of 1 wt.-% ethanol in F4H5 was evaluated in an ex-vivo eye irritation test (EVEIT) using rabbit eyes taken from freshly sacrificed animals. The eyes were fastened in chambers coupled micropump systems which continuously supplied the eyes with cultivation medium (Minimal Essential Medium, MEM T031-05) without fetal calf serum. The vitality of the eyes was monitored by regularly measuring the concentration of lactate and glucose in the chamber eluate. The corneal surface of the eyes was damaged by abrasion, using a dental ceramic abrasive (638XF, Meisinger). For each eye, four lesions of 3.0 to 4.5 mm^2 were prepared.
(§2) To evaluate the effect of F4H5 and F4H5 with 1 wt.-% ethanol on the cornea, an amount of approx. 0.25 to 0.50 μl of the respective test substance was dropped onto the centre of a cornea once every hour over a period of 12 hours, followed by a 12 hour resting period in which the cornea was submersed in culture medium to simulate a closed lid during a night phase. […] Each test was performed over a period of 3 days. The effects were observed by optical coherence tomography (OCT), by digitally determining the dimensions of the lesions after staining with fluorescein, and finally by a histological evaluation of the corneal epithelium and endothelium at the end of each experiment.
(§3) Again, minimal essential medium (MEM) was included as negative control, benzalkonium chloride solution (0.01%) as positive control, and hyaluronic acid solution (0.1%) as a reference.

[2] = test system: rabbit eyes (cornea)
Procedure: as §1, §2, §3

[3] = Example 3, within 3 days, first set of experiments

Compound	effect on healing of abraded corneal lesions ([1]; Example 2)	morphological and histological evaluation of cornea at end of test ([1]; Example 2)	penetration into the cornea by OCT imaging ([1]; Example 2)	physiological tolerability ([1]; Example 2)	Final size of corneal lesions [1]	outcome of corneal lesions [2]	starting area of corneal lesions [2]	starting area of corneal lesions [1] [mm^2]	outcome of corneal lesions [1]	area of corneal damage after treatment [1, 3] [mm^2]	reduction of area of corneal damage [1, 3] [%]
CCCCCC(F)(F)C(F)(F)C(F)(F)C(F)(F)F [F4H5, 1-perfluorobutylpentane]	positive effect on the healing of damaged cornea similar to that of hyaluronic acid; also recorded: Substantial healing	healed very well	no indication of penetration	better tolerated than culture medium	0.19 mm^2 and 1.01 mm^2 and 0.06 mm^2						
CCCCCCCCC(F)(F)C(F)(F)C(F)(F)C(F)(F)C(F)(F)C(F)(F)F [F6H8, 1-perfluorohexyloctane]						complete remission	10.54-16.65 mm^2				
benzalkonium chloride [BAC]	rapid growth of the lesions	complete disintegration of the corneal epithelium						11.23	complete epithelial loss		
hyaluronic acid [HA]	Substantial healing	healed very well			0.36 mm^2 and 0.24 mm^2 and 0.00 mm^2			12.16	complete healing	0.32	97.4
